Converted amounts (≈) assume the structure as drawn. “And” between values parts separate entries of the source, which are not always exact repeats. Equal values may be shown once. Read-outs that look alike come from different tables or passages of the source. Marks after values point to notes of the source that are not given here.
Assays:
[1] = Turbidity-based aqueous solubility; type: physicochemical; conditions: aqueous solution (composition not given), kinetic from dmso stock, read-out: highest soluble concentration
Description: (§1) Table 20 provides results of in vitro and in vivo pharmacokinetics performed for each of the represented compounds.

[2] = Protein binding via Rapid Equilibrium Dialysis - plasma; type: in vitro ADME; conditions: Rat (SD) plasma, 2 μM
Description: as §1

[3] = Microsomal stability assay (half-life), human; type: in vitro ADME; conditions: Human microsomes, read-out: Microsomal stability T1/2
Description: as §1

[4] = Microsomal stability assay (half-life), mouse; type: in vitro ADME; conditions: Mouse (CD1) microsomes, read-out: Microsomal stability T1/2
Description: as §1

[5] = Microsomal stability assay (half-life), rat; type: in vitro ADME; conditions: Rat (SD) microsomes, read-out: Microsomal stability T1/2
Description: as §1

[6] = In vivo PK, oral gavage, plasma; parameters: species or system Rat (SD); conditions: for Plasma concentration, mean: Rat (SD), BQL = below quantitation limit (1.00 ng/mL); for Plasma concentration, mean / Plasma concentration, individual animal: PO 5 mg/kg
Description: as §1
(§2) Tables 4 and 5 depict the summary of rat plasma sample concentrations after administration of ADG I-204. FIG. 6 provides a summary of rat plasma and brain concentrations.

[7] = In vivo PK, IV dose, plasma; parameters: species or system Rat (SD); conditions: for Plasma concentration, mean / Plasma concentration, individual animal: IV 1 mg/kg
Description: as §1, §2

[8] = In vivo PK, IV dose, Terminal - brain (brain availability); parameters: species or system Rat (SD); conditions: for Brain concentration, mean / Brain concentration, individual animal: IV 1 mg/kg
Protocol: Table 3 and FIG. 5 depict the brain availability of ADG I-204, ADG I-205, ADG I-206, and ADG I-207 after IV administration of 1 mg/kg dose.

H3K9ac = experiment: Western blot, differentiated CAD cell lysates, H3K9ac levels; type: cell-based; conditions: differentiated CAD cells, DMSO = 100.00%
Description: as §1

[9] = In vivo PK, oral gavage, plasma; parameters: species or system Rat (SD); conditions: Rat, PO 5 mg/kg, 24.0 hr; BQL limit 1.00 ng/mL; listed as AUG I-207, 5 mg/kg

SMILES: O=C(Nc1ccc2nc(-c3cccs3)c(-c3cccs3)nc2c1)NC12CC3CC(CC(C3)C1)C2 [ADG-207, 1-((1S,3s)-adamantan-1-yl)-3-(2,3-di(thiophen-2-yl)quinoxalin-6-yl)urea]
- solubility [1]: 5 µM (≈ 2.43 µg/mL)
- Protein binding, plasma: % Protein free [2]: 0.9428 % Protein free
- half-life at 2 μM [3]: 18.7 min
- half-life at 2 μM [4]: 5.5 min
- half-life at 2 μM [5]: 5.5 min
- Plasma concentration, mean ([6]; 0.25 hr): BQL
- Plasma concentration, mean ([6]; 0.5 hr): BQL
- Plasma concentration, mean ([6]; 1 hr): BQL
- Plasma concentration, mean ([6]; 4 hr): BQL
- Plasma concentration, mean ([6]; 8 hr): BQL
- Plasma concentration, mean ([6]; 24 hr): BQL
- Plasma concentration, individual animal ([6]; Rat, 0.250 hr, BQL limit 1.00 ng/mL): BQL
- Plasma concentration, individual animal ([6]; Rat, 0.500 hr, BQL limit 1.00 ng/mL): BQL
- Plasma concentration, individual animal ([6]; Rat, 1.00 hr, BQL limit 1.00 ng/mL): BQL
- Plasma concentration, individual animal ([6]; Rat, 4.00 hr, BQL limit 1.00 ng/mL): BQL
- Plasma concentration, individual animal ([6]; Rat, 8.00 hr, BQL limit 1.00 ng/mL): BQL
- concentration at 24 h ([6]; SD, rat, plasma, po, 5 mg/kg, Rat, 24.0 hr, BQL limit 1.00 ng/mL, read-out: Plasma concentration, individual animal): 1.18 ng/mL
- Plasma concentration, mean ([7]; Rat (SD), 0.083 hr, terminal, listed as ADG I-207, 1 mg/kg): 1660*** ng/mL
- Plasma concentration, mean ([7]; Rat (SD), 1 hr, terminal, listed as ADG I-207, 1 mg/kg): 55 ng/mL
- Plasma concentration, mean ([7]; Rat (SD), 4 hr, terminal, listed as ADG I-207, 1 mg/kg): 1 ng/mL
- Plasma concentration, mean ([7]; Rat (SD), 8 hr, terminal, listed as ADG I-207, 1 mg/kg): 1 ng/mL
- Plasma concentration, mean ([7]; Rat (SD), 24 hr, terminal, BQL limit 1.00 ng/mL (ADG I-205: 2.00 ng/mL)): BQL
- Plasma concentration, individual animal ([7]; Rat, 0.0830 hr, terminal, third animal received only 70% of the test article, listed as ADG I-207, 1 mg/kg): 1640 ng/mL and 2230 ng/mL and 1110 ng/mL
- Plasma concentration, individual animal ([7]; Rat, 0.500 hr, not terminal (animals 4, 5 and 6), listed as ADG I-207, 1 mg/kg): 1560** ng/mL and 93.3 ng/mL and 170 ng/mL
- Plasma concentration, individual animal ([7]; Rat, 1.00 hr, terminal, listed as ADG I-207, 1 mg/kg): 70.3 ng/mL and 27.3 ng/mL and 65.8 ng/mL
- Plasma concentration, individual animal ([7]; Rat, 4.00 hr, terminal, BQL limit 1.00 ng/mL (ADG I-205: 2.00 ng/mL), listed as ADG I-207, 1 mg/kg): BQL
- Plasma concentration, individual animal ([7]; Rat, 8.00 hr, terminal, BQL limit 1.00 ng/mL (ADG I-205: 2.00 ng/mL), listed as ADG I-207, 1 mg/kg): BQL and 1.09 ng/mL
- Plasma concentration, individual animal ([7]; Rat, 24.0 hr, terminal, BQL limit 1.00 ng/mL (ADG I-205: 2.00 ng/mL)): BQL
- concentration at 0.083 h ([7]; SD, rat, plasma, iv, 1 mg/kg, Rat (SD), 0.083 hr, terminal, read-out: Plasma concentration, mean): 1660 ng/mL
- concentration at 0.5 h ([7]; SD, rat, plasma, iv, 1 mg/kg, Rat (SD), 0.500 hr, not a terminal time point (animals 4, 5 and 6)): 608 ng/mL
- concentration at 1 h ([7]; SD, rat, plasma, iv, 1 mg/kg, Rat (SD), 1 hr, terminal, read-out: Plasma concentration, mean): 54.5 ng/mL
- concentration at 4 h ([7]; SD, rat, plasma, iv, 1 mg/kg, Rat (SD), 4 hr, terminal, read-out: Plasma concentration, mean): 1.37 ng/mL
- concentration at 8 h ([7]; SD, rat, plasma, iv, 1 mg/kg, Rat (SD), 8 hr, terminal, read-out: Plasma concentration, mean): 1.05 ng/mL
- concentration at 4 h ([7]; SD, rat, plasma, iv, 1 mg/kg, Rat, 4.00 hr, terminal, BQL limit 1.00 ng/mL (ADG I-205: 2.00 ng/mL), read-out: Plasma concentration, individual animal): 1.37 ng/mL
- concentration at 8 h ([7]; SD, rat, plasma, iv, 1 mg/kg, Rat, 8.00 hr, terminal, BQL limit 1.00 ng/mL (ADG I-205: 2.00 ng/mL), read-out: Plasma concentration, individual animal): 1 ng/mL
- Brain concentration, mean ([8]; Rat (SD), 1 hr, listed as ADG I-207, 1 mg/kg): 51 ng/g
- Brain concentration, mean ([8]; Rat (SD), 4 hr, BQL limit 10.0 ng/g (204, 206), 20.0 ng/g (205, 207)): BQL
- Brain concentration, mean ([8]; Rat (SD), 8 hr, BQL limit 10.0 ng/g (204, 206), 20.0 ng/g (205, 207)): BQL
- Brain concentration, mean ([8]; Rat (SD), 24 hr, BQL limit 10.0 ng/g (204, 206), 20.0 ng/g (205, 207)): BQL
- Brain concentration, individual animal ([8]; Rat, 0.0830 hr, third animal received only 70% of the test article, listed as ADG I-207, 1 mg/kg): 204 ng/g and 253 ng/g and 119*** ng/g
- Brain concentration, individual animal ([8]; Rat, 1.00 hr, listed as ADG I-207, 1 mg/kg): 39.8 ng/g and 58.9 ng/g
- Brain concentration, individual animal ([8]; Rat, 4.00 hr, BQL limit 10.0 ng/g (204, 206), 20.0 ng/g (205, 207)): BQL
- Brain concentration, individual animal ([8]; Rat, 8.00 hr, BQL limit 10.0 ng/g (204, 206), 20.0 ng/g (205, 207)): BQL
- Brain concentration, individual animal ([8]; Rat, 24.0 hr, BQL limit 10.0 ng/g (204, 206), 20.0 ng/g (205, 207)): BQL
- concentration at 0.083 h ([8]; SD, rat, brain, iv, 1 mg/kg, Rat (SD), 0.083 hr): 192 ng/g
- concentration at 1 h ([8]; SD, rat, brain, iv, 1 mg/kg, Rat (SD), 1 hr, read-out: Brain concentration, mean): 50.8 ng/g
- concentration at 1 h ([8]; SD, rat, brain, iv, 1 mg/kg, Rat, 1.00 hr, read-out: Brain concentration, individual animal): 53.6 ng/g
- H3K9ac levels normalized to H3 and DMSO control (H3K9ac; 1 uM): 57.45%
- H3K9ac levels normalized to H3 and DMSO control (H3K9ac; 5 uM): 63.69%
- H3K9ac levels normalized to H3 and DMSO control (H3K9ac; 10 uM): 72.97%
- H3K9ac levels normalized to H3 and DMSO control (H3K9ac; 20 uM): 70.92%
- H3K9ac levels normalized to H3 and DMSO control (H3K9ac; 50 uM): 116.85%
- H3K9ac levels normalized to H3 and DMSO control (H3K9ac; 100 uM): 107.80%
- Plasma concentration, individual animal [9]: BQL

From patent US20220117958A1, “COMPOSITIONS AND METHODS FOR INHIBITING ACSS2” (THE TRUSTEES OF THE UNIVERSITY OF PENNSYLVANIA, priority 2018, published 2022)
